# Measured values reported in US8277777B2, “Compound having affinity for amyloid” (Nihon Medi-Physics Co., Ltd., priority 2006, dated 2012).
# Experiments:
# [1] = transferability into brain and clearance; details: rats, intravenous injection
# Experimental: Using Compound 4, a time course change of radioactive accumulation in brain of male Wistar rats (7-week old) was measured.
# The rats were sacrificed by bleeding from abdominal artery, and brains were removed and subjected to measurement of radioactivity (hereinafter referred to as A in this Example) with an autowell gamma system (Type: ARC-301B manufactured by Aloka Co., Ltd.) and further subjected to measurement of mass of brains 2, 5, 30 and 60 minutes after the injection. Also, radioactivity (hereinafter referred to as B in this Example) of 0.05 mL of a 1000-fold diluted solution of the injected solution was measured in the same manner as above. Using these measurement results, radioactive distributions per unit weight of brain (% ID/g) at the respective time points were calculated in accordance with the following formula (5). Three animals were used for experiment at the respective time points.
# [2] = target: T1, intracerebral amyloid (aggregated Aβ1-42 injected into amygdaloid nucleus) (Homo sapiens, UniProt P05067); assay: confirmation of imaging of amyloid in brain (autoradiogram of brain slice); type: in vivo, male Wistar rat; details: rat, tail vein, brain removed 30 minutes after the injection
# T1 construct: dissolving Aβ1-42 (Wako Pure Chemical Industries, Ltd.) in a phosphate buffer (pH 7.4); purchased Wako Pure Chemical Industries, Ltd
# Experimental: The following experiment was carried out in order to examine whether amyloid in brain can be imaged by the compound of the present invention.
# (1) A 1 mg/mL suspension of aggregated Aβ (hereinafter referred to as amyloid suspension in this Example) was obtained by dissolving Aβ1-42 (Wako Pure Chemical Industries, Ltd.) in a phosphate buffer (pH 7.4), followed by shaking at 37° C. for 72 hours.
# (2) 2.5 μL (corresponding to […]) of the amyloid suspension was injected into an amygdaloid nucleus on one side of a male Wistar rat (7-week old). As a control, 2.5 μL of a phosphate buffered physiological saline solution (pH 7.4) was injected into an amygdaloid nucleus on the other side of the rat. The rats were examined 3 days after the injection of the amyloid suspension and the phosphate buffered physiological saline solution.
# (3) Compound 4 was dissolved in a 10 mg/mL ascorbic acid-containing physiological saline solution to obtain a sample solution (84 MBq/mL in radioactivity concentration). This solution was injected into the rat through the tail vein (dosage: 0.5 mL, dosed radioactivity: 42 MBq equivalent).
# (4) Brain was removed 30 minutes after the injection to prepare a brain slice of 10 μm in thickness with a microtome (type: CM3050S, manufactured by LEICA). […]
# [3] = partition coefficient based on the octanol extraction method; type: physicochemical; details: octanol / 10 mmol/L phosphate buffer (pH 7.4), radioactivity
# Experimental: Partition coefficients based on the octanol extraction method (hereinafter referred to as log Poctanol) were measured, which are generally used as an indicator of permeability of compounds through the blood-brain barrier (hereinafter referred to as BBB).
# To 2 mL of octanol, 10 μL of a solution containing Compound 4 (Example 5) and 2 mL of a 10 mmol/L phosphate buffer (pH 7.4) were added and stirred for 30 seconds. After the mixture was centrifuged (2000 rpm×60 min.) with a low-speed centrifuge (model: […] CT4D manufactured by Hitachi Koki Co., Ltd.), the octanol layer and the water layer were sampled each in an amount of 1 mL, and subjected to measurement of radioactivity with an autowell gamma system (manufactured by Aloka, Type: ARC-301B). Using the obtained radioactivity, log Poctanol was calculated in accordance with the equation (2).
# T1 sequence (P05067 672-713): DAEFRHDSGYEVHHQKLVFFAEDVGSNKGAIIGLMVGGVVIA
substance,measurement,setting,value
"2-[4′-(3″-[^18F]fluoropropoxy)phenyl]-6-methoxyimidazo[1,2-a]pyridine [Compound 4]",Radioactive concentration per unit weight in brain,[1]; after 2 min.,1.36 % ID/g
same,Radioactive concentration per unit weight in brain,[1]; after 5 min.,0.93 % ID/g
same,Radioactive concentration per unit weight in brain,[1]; after 30 min.,0.23 % ID/g
same,Radioactive concentration per unit weight in brain,[1]; after 60 min.,0.13 % ID/g
same,accumulation of radioactivity on intracerebral amyloid,[2],possesses a property of accumulating on intracerebral amyloid
same,logPoctanol value,[3],1.8
